Measurements reported in patent US4296206A, “Irreversible anti-glucocorticoids” (United States of America, priority 1980, dated 1981).
Several values for one entry are separate records, joined by “and”; a condition that tells them apart may be missing. Identical values can stand only once. Entries after “also recorded” stand apart in the source; their conditions may differ.

How the values were obtained:
[1] = target: T1, HTC cell glucocorticoid receptors (Rattus norvegicus, UniProt P06536); experiment: cell-free competition assay with 3H-dexamethasone, crude HTC cell receptors; type: binding
T1 construct: crude receptors from a well characterized line of rat hepatoma tissue culture (HTC) cells; endogenous in cells; host or cells: HTC (rat hepatoma tissue culture) cells, crude cytosol
T1 sequence (P06536 1-795): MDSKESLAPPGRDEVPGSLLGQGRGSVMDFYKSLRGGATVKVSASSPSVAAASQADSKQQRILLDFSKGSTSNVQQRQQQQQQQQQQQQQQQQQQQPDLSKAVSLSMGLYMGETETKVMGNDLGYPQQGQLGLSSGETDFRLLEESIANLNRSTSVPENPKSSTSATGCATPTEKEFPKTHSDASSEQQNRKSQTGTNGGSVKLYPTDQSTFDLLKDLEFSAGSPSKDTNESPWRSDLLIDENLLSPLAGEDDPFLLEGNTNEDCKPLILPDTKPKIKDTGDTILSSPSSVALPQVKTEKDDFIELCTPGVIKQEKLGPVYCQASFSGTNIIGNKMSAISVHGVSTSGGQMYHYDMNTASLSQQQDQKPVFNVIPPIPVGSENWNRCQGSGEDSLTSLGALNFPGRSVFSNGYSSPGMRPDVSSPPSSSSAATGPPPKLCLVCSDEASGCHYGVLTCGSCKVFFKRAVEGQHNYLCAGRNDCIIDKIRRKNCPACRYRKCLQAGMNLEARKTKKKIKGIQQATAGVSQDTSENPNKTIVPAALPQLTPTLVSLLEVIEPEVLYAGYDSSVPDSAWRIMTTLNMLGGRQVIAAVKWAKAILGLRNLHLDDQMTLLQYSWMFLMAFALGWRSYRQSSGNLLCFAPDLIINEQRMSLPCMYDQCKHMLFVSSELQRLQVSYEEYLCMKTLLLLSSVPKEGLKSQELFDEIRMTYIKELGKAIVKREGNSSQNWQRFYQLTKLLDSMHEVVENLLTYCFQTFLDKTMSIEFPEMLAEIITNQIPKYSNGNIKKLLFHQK
Source text: (§1) Ir (nujol) ~3400. 1733, 1659, 1359, 1170 cm^-1. […] 59.98; H. 7.32; S. 7.28.
In general, the introduction of bulky substituents on the C21 of glucocorticoids results in derivatives with a reduced affinity for glucocorticoid receptors as described, for example, in Failla, D. et al., Proc. Nat. Acad. Sci. USA, 72, 3849-3852 (1975). […] The data for FIG. 1 was obtained from a determination of relative affinities of cortisol and cortisol-21-mesylate for HTC cell glucocorticoid receptors in a cell-free competition assay. Duplicate crude HTC cell receptor solutions were incubated for 3 hrs at 0° with 5.6×10^-9 M ^3 H-dexamethasone and varying concentrations of cortisol, or CM (final protein concentration=5.1 mg/ml). A 500 fold excess of ^1 H-dexamethasone was used to determine the level of non-specific binding of ^3 H-steroid. The average specifically bound ^3 H-dexamethasone in the presence of varying concentrations of cortisol or CM was plotted as % of the uncompeted control (variation less than ±4%).

[2] = system: tyrosine aminotransferase (TAT) induction in HTC cells; experiment: induction of tyrosine aminotransferase (TAT) in whole HTC cells; type: cell-based, rat
Source text: as §1
HTC cells display several biological responses to glucocorticoids. Tyrosine aminotransferase (TAT) is one specific, glucocorticoid inducible enzyme in HTC cells; and previous extensive studies argue that TAT induction in HTC cells is a primary response to glucocorticoids that is initiated by the binding of steroid to a specific, cytoplasmic receptor. […] The basal level of TAT activity is shown by the dashed line.

[3] = target: T2, dexamethasone induction of TAT in HTC cells (Rattus norvegicus, UniProt P06536); experiment: inhibition of dexamethasone induction of TAT activity in whole HTC cells; type: cell-based
T2 construct: endogenous in cells; host or cells: HTC (rat hepatoma tissue culture) cells, whole, monolayer or spinner cultures
T2 sequence (P06536 1-795): T1 sequence (P06536 1-795)
Experimental: as §1
Alternatively, CM could be a anti-inducer, or inhibitor of glucocorticoid action. […] After the usual incubation (18 hrs/37°) and work-up, the specific enzyme activity of TAT was plotted against the concentration of that steroid present in varying amounts. The range of each duplicate determination is shown by error bars when it exceeds the area of the data points. The basal level of TAT activity is indicated by the dashed line.

[4] = target: T2, dexamethasone induction of TAT in HTC cells; experiment: TAT induction after pre-treatment of HTC cells and washing (reversibility); type: cell-based; conditions: for reversal of pre-incubation effect on dexamethasone induction of TAT by washing the cells: pre-incubation overnight, wash, then 2×10^-8 M dexamethasone
Experimental: One approach to establishing CM as an irreversible inhibitor of TAT induction by glucocorticoids is to determine whether the effects of CM can be reversed by washing the cells.
After incubation at 37°/15 1/2 hrs, ~6×10^7 cells were centrifuged at 600 xg/10 min/22°and resuspended in 200 ml of "conditioned" medium that had also been "incubated" at 37°/15 1/2 hrs. After a second centrifugation, each cell pellet was again resuspended in 210 ml of "conditioned" medium. […] The cells in Wheaton bottles were incubated in a rotating water bath (37°/175 rpm) with 3 ml aliquots being removed at various time points for protein and TAT determinations in the usual manner.

[5] = target: T1, HTC cell glucocorticoid receptors; experiment: cell-free exchange assay (3H-dexamethasone exchange binding to pre-formed complexes); conditions: for effect of pre-incubation of steroid-free receptors on subsequent exchange-binding of 3H-dexamethasone: cell-free
Experimental: as §1
To examine this possibility in more detail, a determination was made as to whether the cell-free binding of CM to HTC cell receptors is reversible. Using the previously described exchange assay, crude HTC cell receptors were incubated with enough cortisol, or CM, to occupy ~75% of the receptor based on data of FIG. 1. After ~3 hrs, activated charcoal was added to remove free steroid and to inactivate steroid-free receptors. An excess of ^3 H-dexamethasone was then added to exchange-bind to the previously formed receptor-steroid complexes. […] Thus CM is an irreversible inhibitor of one aspect of glucocorticoid action in broken cells, i.e., the ability of glucocorticoids to exchange-bind to receptor-glucocorticoid complexes.
FIG. 5 is based on data obtained in studying inhibition of ^3 H-dexamethasone exchange binding to pre-formed complexes by cortisol-21-mesylate. Using the previously described exchange assay, crude HTC cell receptors were pre-incubated with 6×10^-8 M cortisol or 1.35×10^-6 M CM for 2.8 hrs at 0° (final protein concentration=7.0 mg/ml). After addition of activated charcoal to remove free steroid, and to inactivate steroid-free receptors, followed by centrifugation to pellet the activated charcoal, the pre-incubated cytosols were adjusted to 1.9×10^-8 M ^3 H-dexamethasone ±1.1×10^-5 M ^1 H-dexamethasone. After subsequent incubation for the indicated time, activated charcoal was again added to determine the amount of specifically bound ^3 H-dexamethasone (=total-non-specific binding) that was formed by exchange binding in cortisol or CM pre-incubated cytosols. For comparison, the amount of non-specific binding in cortisol or CM pre-incubated receptor solutions is shown in dashed lines.

[6] = system: rats; experiment: experiment with rats, daily intraperitoneal injections; type: in vivo, rat
Source text: In the experiments and uses of CM and DM described above, the toxicity of either compound was negligible. […] In order to be more useful in animals and people, two approaches can be used to reduce this toxicity. […] Second, alternative routes of administration (e.g., oral, intravenous, intramuscular and subcutaneous) might be less toxic.

[7] = system: HTC cells
[8] = in vitro; conditions: rat, htc cells
[9] = cell toxicity in HTC cells (protein content, cell number, trypan blue exclusion); conditions: rat

C[C@@H]1C[C@H]2[C@@H]3CCC4=CC(=O)C=C[C@]4(C)[C@@]3(F)[C@@H](O)C[C@]2(C)[C@@]1(O)C(=O)COS(C)(=O)=O [DM, 16α-methyl-9α-fluoro-1,4-pregnadiene-11β, 17α, 21-triol-3, 20-dione-21-methane-sulfonate]
cell-free affinity for the glucocorticoid receptors of HTC cells [1]: low but significant
affinity for cell free receptors, fold higher than CM ([1]; cell free receptors): approximately 10 fold
Emax ([2]; Rattus norvegicus, whole HTC cells, read-out: induction of TAT in HTC cells, % of full induction): ~25%
inhibition of TAT induction by dexamethasone in whole cells [3]: potent inhibitors
reversal of pre-incubation effect on dexamethasone induction of TAT by washing the cells [4]: cannot be reversed by washing the cells
effect of pre-incubation of steroid-free receptors on subsequent exchange-binding of 3H-dexamethasone [5]: inhibits

C[C@]12CCC(=O)C=C1CC[C@@H]1[C@@H]2[C@@H](O)C[C@@]2(C)[C@H]1CC[C@]2(O)C(=O)COS(C)(=O)=O [CM, 4-pregnene-11β, 17α, 21-triol-3, 20-dione-21-methanesulfonate]
cell-free affinity for the glucocorticoid receptors of HTC cells [1]: low but significant
affinity for glucocorticoid receptors, fold lower than that of the parent steroid cortisol ([1]; 3 hrs at 0°, 5.6×10^-9 M 3H-dexamethasone, crude HTC cell receptors): 15 fold
apparent Kd with HTC cell glucocorticoid receptors, times greater than the Kd of cortisol ([1]; CM): 15 times
induction of TAT in whole HTC cells ([2]; 18 hrs at 37°): completely inactive; also recorded: does not induce TAT
Ki [3]: ~100 nM
inhibition of TAT induction by dexamethasone in whole cells [3]: potent inhibitors
TAT induction by 2×10^-8 M dexamethasone in the presence of the compound ([3]; 1.3×10^-6 M CM): slight but significant increase in TAT
TAT induction by 10^-7 M cortisol in the presence of the compound ([3]; 1.3×10^-6 M CM): unable to induce TAT
duration of activity as anti-glucocorticoid in HTC cell cultures ([3]; 37°, tissue culture): ~ 18 hrs and 17-18 hrs
time after which no longer completely inhibitory (some inducibility of TAT returns) ([3]; HTC cells): about 24 hr
magnitude of TAT induction 24 hrs after the wash procedure in pre-treated, post-dexamethasone treated cells ([4]; 24 hrs after wash): significantly reduced; also recorded: only partial induction
appearance of TAT in pre-treated cells, delay after TAT induction in EtOH or progesterone pre-treated cells ([4]; average of three experiments): 2.7 h
time without TAT induction after the wash procedure in pre-treated, post-dexamethasone treated cells ([4]; pre-CM, post-dexamethasone): ~ 8 hrs and 6-8 hrs
reversal of pre-incubation effect on dexamethasone induction of TAT by washing the cells [4]: can not reverse; also recorded: cannot be reversed by washing the cells
effect of pre-incubation of steroid-free receptors on subsequent exchange-binding of 3H-dexamethasone [5]: inhibits
inhibition at 1.35 µM ([5]; pre-incubation 1.35×10^-6 M CM, ~3 hrs at 0°, read-out: reduction of the ability of receptors to exchange-bind 3H-dexamethasone): ~75%
anti-glucocorticoid activity in rats ([6]; daily intraperitoneal injections of 10-50 mg per kilogram): some anti-glucocorticoid activity
toxicity in rats at higher doses ([6]; ≥100 mg/kilogram, intraperitoneal): peritonitis and death
effect on cell number [7]: no effect
effect on total cell protein [7]: ~1% increase to 6% decrease
cytotoxicity [8]: 20%
cytotoxicity at 13 µM [9]: 12%
viability [9]: 93 to 94%
